Test results from patent publication US9850283B2, “Macrocyclic inhibitors of the PD-1/PD-L1 and CD80(B7-1)/PD-L1 protein/protein interactions” (BRISTOL-MYERS SQUIBB COMPANY, priority 2013, dated 2017).
Read-outs that look alike come from different tables or passages of the source. Positions of bridges follow the written chain, without caps; N, C: chain ends. Non-standard residues stand in square brackets, D forms with d. Residues, ends and D or L forms follow the SMILES beside them. ξ: configuration not given here. Bta = N[C@@H](Cc1csc2ccccc12)C(=O)O; Hyp = O=C(O)[C@@H]1C[C@@H](O)CN1; dNMeNle = CCCC[C@@H](NC)C(=O)O; NMeNle = CCCC[C@H](NC)C(=O)O; NMeA = CN[C@@H](C)C(=O)O; dDap = NC[C@@H](N)C(=O)O; Dab = NCC[C@H](N)C(=O)O; Dap = NC[C@H](N)C(=O)O; ξP = O=C(O)C1CCCN1

Experiments:
[1] = molecular target: T1, Human PD-L1/PD-1 (Homo sapiens, UniProt Q9NZQ7); assay: HTRF PD-1-Ig/PD-L1-His binding assay (human PD-L1); conditions: cluster symbol; read-out: HTRF IC50 cluster
T1 construct: made in house; host or cells: HEK293T
T1 sequence (Q9NZQ7 with tags, fused parts or gaps): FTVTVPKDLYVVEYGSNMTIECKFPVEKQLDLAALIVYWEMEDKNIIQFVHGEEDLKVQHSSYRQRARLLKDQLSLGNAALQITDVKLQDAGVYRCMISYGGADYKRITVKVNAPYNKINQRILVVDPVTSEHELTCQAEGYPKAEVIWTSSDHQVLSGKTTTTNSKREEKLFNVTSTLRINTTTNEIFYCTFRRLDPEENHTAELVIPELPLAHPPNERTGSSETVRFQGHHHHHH
In short: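 Steps: truncated PD-1-Ig and PD-L1-His fusions are incubated in dPBS containing 0.1% (w/v) BSA and 0.05% (v/v) Tween-20. Detection antibodies are then added (Eu cryptate anti-Ig at 1 nM final, APC anti-His at 20 nM final), and time-resolved FRET is measured.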

[2] = molecular target: T2, LK35.2-hPD-L1 cells / PE-labeled PD-1-Ig (Homo sapiens, UniProt Q9NZQ7); assay: LK35.2-hPD-L1 cell binding high-content screening assay; format: cell-based; conditions: cluster symbol, read-out: CBA IC50 cluster
T2 construct: expressed in transfected cells; host or cells: LK35.2 mouse B cell line
T2 sequence (Q9NZQ7 19-290): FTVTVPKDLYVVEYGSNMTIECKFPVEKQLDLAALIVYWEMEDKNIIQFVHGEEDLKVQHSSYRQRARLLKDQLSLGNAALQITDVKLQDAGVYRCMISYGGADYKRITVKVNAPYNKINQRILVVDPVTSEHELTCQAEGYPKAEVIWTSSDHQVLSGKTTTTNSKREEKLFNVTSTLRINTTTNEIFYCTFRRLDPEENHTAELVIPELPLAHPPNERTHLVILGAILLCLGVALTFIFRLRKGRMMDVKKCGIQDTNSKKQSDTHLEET
In short: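 Mouse LK35.2 B cells stably over-expressing human PD-L1, cultured overnight, treated with compound plus PE-labeled human PD-1-Ig (1 nM final) in RPMI/10% FCS for 1 h at 37 °C. After washing, bound fluorescence quantified by high-content imaging.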

[3] = cell line of CBA not given (LK35.2-hPD-L1 or 293T-hPD-L1)

SMILES | IC50 [1] [nM] | IC50 [2, 3] [nM] | IC50 ([2]; cell binding assay, cell line not given) [nM]
CCCC[C@@H]1C(=O)N(C)[C@H](CCCC)C(=O)N[C@@H](C)C(=O)N[C@@H](C(=O)NCC(N)=O)CSCC(=O)N[C@@H](Cc2ccc(O)cc2)C(=O)N2CCCC2C(=O)N[C@H](CC(N)=O)C(=O)N2CCC[C@H]2C(=O)N[C@H](CN)C(=O)N[C@@H](CCC(N)=O)C(=O)N2CCCC2C(=O)N[C@H](Cc2c[nH]c3ccccc23)C(=O)N[C@@H](CCN)C(=O)N[C@@H](Cc2c[nH]c3ccccc23)C(=O)N1C (stereo partly drawn) [Example 1211] ({CH2CO}-Y[ξP][dN]P[dDap]Q[ξP][dW][Dab]W[dNMeNle][dNMeNle]A[dC]G-NH2; thioether N-14) | 6.76 to 30.3 | > 74.3 | 
CCCC[C@H]1C(=O)N(C)[C@@H](CCCC)C(=O)N[C@@H](CN)C(=O)N[C@H](C(=O)NCC(N)=O)CSCC(=O)N[C@@H](Cc2ccc(O)cc2)C(=O)N(C)[C@@H](C)C(=O)N[C@@H](CC(N)=O)C(=O)N2CCC[C@H]2C(=O)N[C@@H](CN)C(=O)N[C@@H](CCC(=O)O)C(=O)N2C[C@H](O)C[C@H]2C(=O)N[C@@H](Cc2c[nH]c3ccccc23)C(=O)N[C@@H](CO)C(=O)N[C@@H](Cc2csc3ccccc23)C(=O)N1C [Example 1162] ({CH2CO}-Y[NMeA]NP[Dap]E[Hyp]WS[Bta][NMeNle][NMeNle][Dap]CG-NH2; thioether N-14) | 0.385 to 6.74 | 0.158 to 4.71 | 
CCCC[C@H]1C(=O)N(C)CC(=O)N[C@@H](CC(=O)O)C(=O)N[C@@H](C(C)C)C(=O)N(C)[C@@H](Cc2ccccc2)C(=O)N[C@@H](Cc2ccc(O)cc2)C(=O)N(C)CC(=O)N[C@@H](Cc2c[nH]c3ccccc23)C(=O)N[C@@H](Cc2ccc(O)cc2)C(=O)N[C@@H](CC(C)C)C(=O)N[C@H](C(=O)NCC(N)=O)CSCC(=O)N[C@@H](CCSC)C(=O)N(C)[C@@H](Cc2ccccc2)C(=O)N1C [Example 3172] (HELM PEPTIDE1{[O=C(C[*:3])[*:2]].M.[meF].[CCCC[C@@H](C(=O)[*:2])N(C)[*:1]].[Sar].D.V.[meF].Y.[Sar].W.Y.L.C.G.[am]}$PEPTIDE1,PEPTIDE1,1:R3-14:R3$$$V2.0) | > 30.5 | > 74.3 | 
CC[C@H](C)[C@H]1C(=O)N(C)CC(=O)N[C@@H](CC(=O)O)C(=O)N[C@@H](C(C)C)C(=O)N(C)[C@@H](Cc2ccccc2)C(=O)N[C@@H](Cc2ccc(O)cc2)C(=O)N(C)CC(=O)N[C@@H](Cc2c[nH]c3ccccc23)C(=O)N[C@@H](Cc2ccc(O)cc2)C(=O)N[C@@H](CC(C)C)C(=O)N[C@H](C(=O)NCC(N)=O)CSCC(=O)N[C@@H](Cc2ccccc2)C(=O)N(C)[C@@H](Cc2ccccc2)C(=O)N1C [Example 3142] (HELM PEPTIDE1{[O=C(C[*:3])[*:2]].F.[meF].[meI].[Sar].D.V.[meF].Y.[Sar].W.Y.L.C.G.[am]}$PEPTIDE1,PEPTIDE1,1:R3-14:R3$$$V2.0) | 6.76 to 30.3 | 4.78 to 72.9 | 

Next, values leading:

IC50 [1] [nM] | IC50 [2, 3] [nM] | IC50 ([2]; cell binding assay, cell line not given) [nM] | SMILES
0.385 to 6.74 | 0.158 to 4.71 |  | CCCC[C@H]1C(=O)N(C)[C@@H](CCCC)C(=O)N[C@@H](CCCN)C(=O)N[C@H](C(=O)NCC(N)=O)CSCC(=O)N[C@@H](Cc2ccc(O)cc2)C(=O)N2CC(F)(F)C[C@H]2C(=O)N[C@@H](CC(N)=O)C(=O)N2CCC[C@H]2C(=O)N[C@@H](Cc2cnc[nH]2)C(=O)N[C@@H](CC(C)C)C(=O)N2C[C@H](O)C[C@H]2C(=O)N[C@@H](Cc2c[nH]c3ccccc23)C(=O)N[C@@H](CO)C(=O)N[C@@H](Cc2c[nH]c3ccccc23)C(=O)N1C [Example 1174]
6.76 to 30.3 |  | 4.78 to 72.9 | CCCC[C@H]1C(=O)N(C)[C@@H](CO)C(=O)N[C@@H](CCCNC(=N)N)C(=O)NC(C(=O)NCC(N)=O)CSCC(=O)N[C@@H](Cc2ccc(O)cc2)C(=O)N(C)[C@@H](C)C(=O)N[C@@H](CC(N)=O)C(=O)N2CCC[C@H]2C(=O)N[C@@H](Cc2cnc[nH]2)C(=O)N[C@@H](CC(C)C)C(=O)N2C[C@H](O)C[C@H]2C(=O)N[C@@H](Cc2c[nH]c3ccccc23)C(=O)N[C@@H](CO)C(=O)N[C@@H](Cc2c[nH]c3ccccc23)C(=O)N1C (stereo partly drawn) [Example 9034]
